Data taken from PubChem BioAssay AID743334 (Broad Institute, 2014).
The source made the active and inactive calls.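 The calls were made as follows: active = curve reaches 40% rise within the top valid dose, in every run; inconclusive = runs give conflicting calls; inactive = opposite-direction activity, or every run inactive.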

Columns and labels:
[1] = test system: C2C12 myotubes ATP, CellTiter-Glo luminescence, 48 h; test: statin-free myotube ATP level counter-assay – cell-based, no simvastatin, luminescence, dry powder, counter-screen for statin myotoxicity suppressor project, dose response (AID 743334)
[2] = as above; conditions: C2C12 myotubes ATP, CellTiter-Glo luminescence, 48 h; for max activity: hits give high values; for ATP level change, positive = increase: at 19.5 µM (top of the series)

Structure (SMILES): N#C[C@@H]1[C@@H](c2ccc(-c3cccc(F)c3)cc2)[C@H](CO)N1C(=O)NC1CCCC1
- AC40 [1]: > 21 µM (inactive)

Structure (SMILES): COc1ccc(CN(C)C[C@H]2Oc3ccc(NS(=O)(=O)c4ccc(Cl)cc4)cc3CC(=O)N([C@@H](C)CO)C[C@@H]2C)cc1
- AC40 [1]: > 19.5 µM (inactive)

Structure (SMILES): C[C@H](CO)N1C[C@H](C)[C@H](CN(C)CC2CCCCC2)Oc2ccc(NC(=O)CCCCCC(=O)Nc3ccccc3N)cc2CC1=O
- AC40 [1]: > 19.5 µM (inactive)

Structure (SMILES): C[C@H]1CN([C@@H](C)CO)C(=O)c2cc(NC(=O)Nc3cccc4ccccc34)ccc2O[C@H]1CN(C)Cc1ccc(C(=O)Nc2ccccc2N)cc1
- AC40 [1]: > 19.5 µM (inactive)

Structure (SMILES): C[C@@H]1CN([C@@H](C)CO)C(=O)c2cc(NC(=O)Nc3cccc4ccccc34)ccc2O[C@@H]1CN(C)Cc1ccc(C(=O)Nc2ccccc2N)cc1
- AC40 [1]: > 21 µM (inactive)

Structure (SMILES): COc1ccc(S(=O)(=O)Nc2ccc3c(c2)CC(=O)N([C@H](C)CO)C[C@@H](C)[C@H](CN(C)CC2CCCCC2)O3)cc1
- max activity [2]: -10.2% (inactive)

Structure (SMILES): C[C@H]1CN([C@@H](C)CO)C(=O)Cc2cc(NC(=O)CCCCCC(=O)Nc3ccccc3N)ccc2O[C@H]1CN(C)Cc1ccccc1
- AC40 [1]: 18 µM (inactive)

Structure (SMILES): CCS(=O)(=O)N1[C@H](C#N)[C@@H](c2ccc(-c3cccc(F)c3)cc2)[C@@H]1CO
- max activity [2]: -8.9% (inactive)

Structure (SMILES): C[C@H](CO)N1C[C@H](C)[C@@H](CN(C)Cc2ccc(C(=O)Nc3ccccc3N)cc2)Oc2ccc(NC(=O)Cc3cn(C)c4ccccc34)cc2C1=O
- max activity [2]: -9.11% (inactive)

Structure (SMILES): N#C[C@@H]1[C@@H](c2ccc(C#CC3CCCC3)cc2)[C@H](CO)N1S(=O)(=O)c1ccccc1
- max activity [2]: -8.85% (inactive)

Structure (SMILES): C[C@@H]1CN([C@H](C)CO)C(=O)Cc2cc(NC(=O)C3CCCCC3)ccc2O[C@H]1CN(C)Cc1ccc(Cl)c(Cl)c1
- ATP level change, positive = increase [2]: 15.1% (inactive)

Structure (SMILES): O=C(C[C@H]1CC[C@@H]2[C@H](COC[C@H](O)CN2CCC(F)(F)F)O1)NCc1ccc(Oc2ccccc2)cc1
- max activity [2]: 9.67% (inactive)

Structure (SMILES): C[C@H]1CN([C@@H](C)CO)C(=O)c2cc(N(C)C)ccc2O[C@@H]1CN(C)Cc1ccc(C(=O)Nc2ccccc2N)cc1
- ATP level change, positive = increase [2]: 3.03% (inactive)

Structure (SMILES): COc1ccc(-c2ccc([C@@H]3[C@@H](C#N)N(C(=O)NC4CCCC4)[C@H]3CO)cc2)cc1
- max activity [2]: 5.47% (inactive)

Structure (SMILES): CCCNC(=O)N1[C@H](C#N)[C@@H](c2ccc(C3=CCCCC3)cc2)[C@@H]1CO
- max activity [2]: -7.65% (inactive)

Structure (SMILES): Cc1noc(C)c1S(=O)(=O)Nc1ccc2c(c1)CC(=O)N([C@H](C)CO)C[C@H](C)[C@@H](CN(C)Cc1ccc(C(F)(F)F)cc1)O2
- ATP level change, positive = increase [2]: 10.6% (inactive)

Structure (SMILES): C[C@H]1CN([C@@H](C)CO)C(=O)c2cc(NC(=O)Cc3cn(C)c4ccccc34)ccc2O[C@H]1CN(C)Cc1ccc(C(=O)Nc2ccccc2N)cc1
- max activity [2]: 5.76% (inactive)

Structure (SMILES): Cc1ccc(S(=O)(=O)Nc2ccc3c(c2)CC(=O)N([C@@H](C)CO)C[C@@H](C)[C@H](CN(C)Cc2ccc(-c4ccccc4)cc2)O3)cc1
- ATP level change, positive = increase [2]: -0.559% (inactive)

Structure (SMILES): C[C@H]1CN([C@@H](C)CO)C(=O)c2cc(C#Cc3ccncc3)cnc2O[C@@H]1CN(C)CC1CCCC1
- AC40 [1]: > 19.5 µM (inactive)

Structure (SMILES): COc1ccc(S(=O)(=O)Nc2ccc3c(c2)CC(=O)N([C@H](C)CO)C[C@H](C)[C@@H](CN(C)Cc2ccc(Cl)c(Cl)c2)O3)cc1
- AC40 [1]: > 19.5 µM (inactive)

Structure (SMILES): C[C@@H]1CN([C@@H](C)CO)C(=O)Cc2cc(NC(=O)CCCCCC(=O)Nc3ccccc3N)ccc2O[C@@H]1CN(C)Cc1ccc(Oc2ccccc2)cc1
- max activity [2]: -25.1% (inactive)

Structure (SMILES): C[C@H](CO)N1C[C@H](C)[C@@H](CN(C)Cc2ccc(Cl)c(Cl)c2)Oc2ccc(NC(=O)C3CC3)cc2CC1=O
- AC40 [1]: > 19.5 µM (inactive)

Structure (SMILES): N#C[C@H]1[C@@H](c2ccc(-c3cccc(F)c3)cc2)[C@@H](CO)N1C(=O)NC1CCCC1
- max activity [2]: -0.663% (inactive)
